{
  "source": "patent US20220274979A1",
  "about": "(Bayer Pharma Aktiengesellschaft, priority 2018, published 2022)",
  "data": [
    {"target": "T1, hSOS1 (hSOS1-mediated loading of hK-RasG12C-GDP) (Homo sapiens, UniProt Q07889)", "T1 construct": "hSOS1 (amino acid 564-1049); made in house; host or cells: E. coli BL21 (DE3)", "T1 sequence (Q07889 with tags, fused parts or gaps)": "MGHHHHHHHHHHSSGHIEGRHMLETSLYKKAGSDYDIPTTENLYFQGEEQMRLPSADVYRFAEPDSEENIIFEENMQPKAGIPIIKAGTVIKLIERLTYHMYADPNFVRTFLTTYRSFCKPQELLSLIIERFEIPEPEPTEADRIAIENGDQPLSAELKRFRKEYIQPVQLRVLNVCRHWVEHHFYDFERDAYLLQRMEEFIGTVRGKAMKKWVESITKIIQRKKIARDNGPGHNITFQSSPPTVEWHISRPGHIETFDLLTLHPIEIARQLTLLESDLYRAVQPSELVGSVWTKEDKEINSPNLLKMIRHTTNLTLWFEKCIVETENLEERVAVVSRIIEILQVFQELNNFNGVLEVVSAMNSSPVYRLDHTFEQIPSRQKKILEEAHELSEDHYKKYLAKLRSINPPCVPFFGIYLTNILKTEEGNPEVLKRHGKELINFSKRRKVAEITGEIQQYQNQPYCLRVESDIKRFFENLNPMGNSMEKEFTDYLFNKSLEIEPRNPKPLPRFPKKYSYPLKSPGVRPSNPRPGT", "experiment": "Biochemical Assay 3: hK-RasG12C activation assay by hSOS1 (loading with fluorescent GTP analog, HTRF)", "details": "no GTP", "from_the_text": "Biochemical Assay 3: hK-RasG12C Activation Assay by hSOS1\nK-Ras is a small GTPase that can bind GDP and GTP. The guanine nucleotide exchange factor SOS1 catalyzes the activation of K-Ras by promoting the exchange of GDP to GTP. SOS1 binds to K-Ras-GDP thereby opening the GDP-binding pocket to facilitate GDP release. Rebinding of excess nucleotide leads to dissociation of the K-Ras-SOS1 intermediate complex leaving K-Ras loaded with the nucleotide.\nThis assay quantifies human SOS1-(hSOS1-)mediated loading of human K-Ras^G12C-GDP (hK-RasG12C-GDP) with a fluorescent GTP-analog. Detection of successful loading is achieved by measuring homogenous time-resolved fluorescence resonance energy transfer (HTRF) from antiGST-Terbium (FRET donor) bound to GST-hK-RasG12C (see below) to the loaded fluorescent GTP analog (FRET-acceptor).\nThe fluorescent GTP-analog EDA-GTP-Dy647P1 (2′/3′-O-(2-Aminoethyl-carbamoyl)-guanosine-5′-triphosphate labelled with Dy647P1 (Dyomics GmbH, Germany)) was synthesized by Jena Biosciences GmbH (Germany) and supplied as a 1 mM aqueous solution.\nThe assay buffer contained 10 mM HEPES pH 7.4 (Applichem), 150 mM NaCl (Sigma), 5 mM MgCl2 (Sigma), 1 mM DTT (Thermofisher), 0.05% BSA Fraction V, pH 7.0, (ICN Biomedicals), 0.0025% (v/v) Igepal (Sigma).\nConcentrations of protein batches used were optimized to be within the linear range of the HTRF signal. A hRas working solution was prepared in assay buffer containing typically 100 nM GST-hK-RasG12C and 2 nM antiGST-Tb (Cisbio, France). A hSOS1 working solution was prepared in assay buffer containing typically 20 nM hSOS1 and 200 nM EDA-GTP-Dy647P1. An inhibitor control solution was prepared in assay buffer containing 200 nM EDA-GTP-Dy647P1 without hSOS1.\nFifty nl of a 100-fold concentrated solution of the test compound in DMSO were transferred into a black microtiter test plate (384 or 1536, Greiner Bio-One, Germany) For this, either a Hummingbird liquid handler (Digilab, Mass., USA) or an Echo acoustic system (Labcyte, Calif., USA) was used.\nAll steps of the assay were performed at 20° C. A volume of 2.5 μl of the hRas working solution was added to all wells of the test plate using a Multidrop dispenser (Thermo Labsystems). After 10 min. preincubation, 2.5 μl of the hSOS1 working solution were added to all wells except for those wells at the side of the test plate that were subsequently filled with 2.5 μl of the inhibitor control solution. After […] incubation the fluorescence was measured with a Pherastar (BMG, Germany) using the HTRF module (excitation 337 nm, emission 1: 620 nm, emission 2:665 nm).\nIC50 values were calculated by 4-Parameter fitting using a commercial software package (Genedata Screener, Switzerland).", "units": {"IC50": "nM"}, "values": [
      {"smiles": "CCOc1cc2c(NC(C)c3cccc4sccc34)nc(C)nc2cn1", "note": "(centres unmarked) [Example 3, N-[1-(1-benzothiophen-4-yl)ethyl]-6-ethoxy-2-methylpyrido[3,4-d]pyrimidin-4-amine]", "IC50": 355},
      {"smiles": "Cc1nc(N[C@H](C)c2ccc(F)cc2)c2cc(F)ncc2n1", "note": "[Example 9]", "IC50": "> 20000"},
      {"smiles": "COCCOc1ncc2nc(C)nc(N[C@H](C)c3cccc(Br)c3)c2n1", "note": "[Example 26, N-[(1R)-1-(3-bromophenyl)ethyl]-6-(2-methoxyethoxy)-2-methylpyrimido[5,4-d]pyrimidin-4-amine]", "IC50": "> 20000"},
      {"smiles": "Cc1nc(NC(C)c2ccc(-c3ccccc3CN(C)C)s2)c2cc(OC3CCS(=O)(=O)CC3)ncc2n1", "note": "(centres unmarked) [Example 67, N-[1-(5-{2-[(dimethylamino)methyl]phenyl}thiophen-2-yl)ethyl]-6-[(1,1-dioxidotetrahydro-2H-thiopyran-4-yl)oxy]-2-methylpyrido[3,4-d]pyrimidin-4-amine]", "IC50": 63.3},
      {"smiles": "Cc1nc(N[C@H](C)c2cccc(Br)c2)c2cc(Oc3cccc(C4=NCCN4C)c3)ncc2n1", "note": "[Example 41, N-[(1R)-1-(3-bromophenyl)ethyl]-2-methyl-6-[3-(1-methyl-4,5-dihydro-1H-imidazol-2-yl)phenoxy]pyrido[3,4-d]pyrimidin-4-amine]", "IC50": 3880},
      {"smiles": "Cc1nc(N[C@H](C)c2cccc(Br)c2)c2cc(F)ncc2n1", "note": "[Example 34, N-[(1R)-1-(3-bromophenyl)ethyl]-6-fluoro-2-methylpyrido[3,4-d]pyrimidin-4-amine]", "IC50": "> 20000"},
      {"smiles": "Cc1nc(NC(C)c2ccc(-c3ccccc3CN(C)C)s2)c2cc(Oc3cccc(O)c3)ncc2n1", "note": "(centres unmarked) [Example 52, 3-[(4-{[1-(5-{2-[(dimethylamino)methyl]phenyl}thiophen-2-yl)ethyl]amino}-2-methylpyrido[3,4-d]pyrimidin-6-yl)oxy]phenol]", "IC50": 532},
      {"smiles": "Cc1nc(NC(C)c2ccc(-c3ccccc3CN(C)C)s2)c2cc(N3CC(NC(=O)Nc4ccccc4)C3)ncc2n1", "note": "(centres unmarked) [Example 96, 1-[1-(4-{[1-(5-{2-[(dimethylamino)methyl]phenyl}thiophen-2-yl)ethyl]amino}-2-methylpyrido[3,4-d]pyrimidin-6-yl)azetidin-3-yl]-3-phenylurea]", "IC50": 206},
      {"smiles": "Cc1nc(NC(C)c2ccc(-c3ccccc3CN(C)C)s2)c2cc(N3CC(NC(=O)CCCn4c(-c5ccccn5)nc(C)c4C)C3)ncc2n1", "note": "(centres unmarked) [Example 87, N-[1-(4-{[1-(5-{2-[(dimethylamino)methyl]phenyl}thiophen-2-yl)ethyl]amino}-2-methylpyrido[3,4-d]pyrimidin-6-yl)azetidin-3-yl]-4-[4,5-dimethyl-2-(pyridin-2-yl)-1H-imidazol-1-yl]butanamide]", "IC50": 228},
      {"smiles": "CCOc1cc2c(NC(C)c3ccc(-c4ccccc4CN(C)C)s3)nc(C)nc2cn1", "note": "(centres unmarked) [Example 63, N-[1-(5-{2-[(dimethylamino)methyl]phenyl}thiophen-2-yl)ethyl]-6-ethoxy-2-methylpyrido[3,4-d]pyrimidin-4-amine]", "IC50": 61.1},
      {"smiles": "CC(=O)NC1CCN(c2cc3c(N[C@H](C)c4cccc(Br)c4)nc(C)nc3cn2)C1", "note": "(mixture of isomers) [Example 42, N-[1-(4-{[(1R)-1-(3-bromophenyl)ethyl]amino}-2-methylpyrido[3,4-d]pyrimidin-6-yl)pyrrolidin-3-yl]acetamide]", "IC50": 366},
      {"smiles": "CNCc1ccccc1-c1ccc(C(C)Nc2nc(C)nc3cnc(Oc4ccc(N5CCCC5=O)cc4)cc23)s1", "note": "(centres unmarked) [Example 38, 1-{4-[(2-methyl-4-{[1-(5-{2-[(methylamino)methyl]phenyl}thiophen-2-yl)ethyl]amino}pyrido[3,4-d]pyrimidin-6-yl)oxy]phenyl}pyrrolidin-2-one]", "IC50": 269},
      {"smiles": "Cc1nc(N[C@H](C)c2ccc(F)cc2)c2cc(OCC3CCOCC3)ncc2n1", "note": "[Example 11, N-[1R)-1-(4-fluorophenypethyl]-2-methyl-6-(tetrahydro-2H-pyran-4-ylmethoxy)-pyrido[3,4-d]pyrimidin-4-amine]", "IC50": 2490},
      {"smiles": "Cc1nc(N[C@H](C)c2cccc(Br)c2)c2cc(Oc3cccc(O)c3)ncc2n1", "note": "[Example 40, 3-[(4-{[(1R)-1-(3-bromophenyl)ethyl]amino}-2-methylpyrido[3,4-d]pyrimidin-6-yl)oxy]phenol]", "IC50": "> 20000"},
      {"smiles": "CCOc1cc2c(N[C@H](C)c3cccc(S(C)(=O)=O)c3)nc(C)nc2cn1", "note": "[Example 7, 6-ethoxy-2-methyl-N-{(1R)-1-[3-(methylsulfonyl)phenyl]ethyl}pyrido[3,4-d]pyrimidin-4-amine]", "IC50": 2380},
      {"smiles": "Cc1nc(NC(C)c2ccc(-c3ccccc3CN(C)C)s2)c2cc(NCC3CCNC(=O)C3)ncc2n1", "note": "(centres unmarked) [Example 86, 4-{[(4-{[1-(5-{2-[(dimethylamino)methyl]phenyl}thiophen-2-yl)ethyl]amino}-2-methylpyrido[3,4-d]pyrimidin-6-yl)amino]methyl}piperidin-2-one]", "IC50": 144},
      {"smiles": "Cc1nc(N[C@H](C)c2cccc(Br)c2)c2cc(N3CCN(Cc4cccnc4)CC3)ncc2n1", "note": "[Example 43, N-[(1R)-1-(3-bromophenyl)ethyl]-2-methyl-6-[4-(pyridin-3-ylmethyl)piperazin-1-yl]pyrido[3,4-d]pyrimidin-4-amine]", "IC50": 446},
      {"smiles": "Cc1nc(N[C@H](C)c2cccc(Br)c2)c2nc(Oc3ccccc3)ccc2n1", "note": "[Example 32, N-[(1R)-1-(3-bromophenyl)ethyl]-2-methyl-6-phenoxypyrido[3,2-d]pyrimidin-4-amine]", "IC50": "> 20000"},
      {"smiles": "Cc1nc(NC(C)c2ccc(-c3ccccc3CN(C)C)s2)c2cc(OCCCO)ncc2n1", "note": "(centres unmarked) [Example 76, 3-[(4-{[1-(5-{2-[(dimethylamino)methyl]phenyl}thiophen-2-yl)ethyl]amino}-2-methylpyrido[3,4-d]pyrimidin-6-yl)oxy]propan-1-ol]", "IC50": 73},
      {"smiles": "Cc1nc(NC(C)c2ccc(-c3ccccc3CN(C)C)s2)c2cc(N3CC(NC(=O)Cc4ccccc4)C3)ncc2n1", "note": "(centres unmarked) [Example 89, N-[1-(4-{[1-(5-{2-[(dimethylamino)methyl]phenyl}thiophen-2-yl)ethyl]amino}-2-methylpyrido[3,4-d]pyrimidin-6-yl)azetidin-3-yl]-2-phenylacetamide]", "IC50": 132},
      {"smiles": "Cc1nc(NC(C)c2ccc(-c3ccccc3CO)s2)c2cc(F)ncc2n1", "note": "(centres unmarked) [Example 68, [2-(5-{1-[(6-fluoro-2-methylpyrido[3,4-d]pyrimidin-4-yl)amino]ethyl}thiophen-2-yl)phenyl]methanol]", "IC50": "> 20000"},
      {"smiles": "COc1cc2c(N[C@H](C)c3cccc(Br)c3)nc(C)nc2cn1", "note": "[Example 57, N-[(1R)-1-(3-bromophenyl)ethyl]-6-methoxy-2-methylpyrido[3,4-d]pyrimidin-4-amine]", "IC50": 1780},
      {"smiles": "COCCOc1ccc2nc(C)nc(N[C@H](C)c3cccc(Br)c3)c2n1", "note": "[Example 30, N-[(1R)-1-(3-bromophenyl)ethyl]-6-(2-methoxyethoxy)-2-methylpyrido[3,2-d]pyrimidin-4-amine]", "IC50": "≥ 27800"},
      {"smiles": "Cc1nc(N[C@H](C)c2cccc(Br)c2)c2nc(N(C)C)ccc2n1", "note": "[Example 31]", "IC50": "> 20000"},
      {"smiles": "COc1cc2c(NC(C)c3cccc4c3cnn4C)nc(C)nc2cn1", "note": "(centres unmarked) [Example 14, 6-methoxy-2-methyl-N-[1-(1-methyl-1H-indazol-4-yl)ethyl]pyrido[3,4-d]pyrimidin-4-amine]", "IC50": 12600},
      {"smiles": "Cc1nc(N[C@H](C)c2ccc(F)cc2)c2cc(OC(C)C)ncc2n1", "note": "[Example 15]", "IC50": 8790}
    ]}
  ]
}
